Test results reported in patent publication US8445509B2, “Fused heterocyclic derivatives and use thereof” (Takeda Pharmaceutical Company Limited, priority 2008, dated 2013).

Key:
[1] = biological target: T1, VEGFR2 intracellular domain protein (Homo sapiens, UniProt P35968); assay: Vascular endothelial growth factor receptor 2 (VEGFR2) kinase inhibitory activity (AlphaScreen); type: biochemical
T1 construct: made in house; host or cells: SF-21 insect cells, recombinant baculovirus BAC-VEGFR2
Method: Human vascular endothelial growth factor receptor 2 (hereinafter to be referred to as VEGFR2) gene was cloned by PCR using cDNA Libraries Human Placenta (Clontech) as a template. […] The primer base sequence is shown below.
SF-21 cells were sown at 1×10^6 cells/mL to Sf-900II SFM medium (1 L, Invitrogen) containing 10% fetal bovine serum (trace), 50 mg/L Gentamicin (Invitrogen) and 0.1% Pluronic F-68 (Invitrogen), and shaking culture was performed using a 2 L volume Erlenmeyer flask at 27° C., 100 rpm. After culturing for 24 hrs, recombinant baculovirus BAC-VEGFR2 (13.4 mL) was added to the mixture, and the mixture was further cultured for 3 days. The culture medium was centrifuged at 2,000 rpm for 5 min to give virus-infected cells. The infected cells were washed with a phosphate buffered saline (Invitrogen), centrifuged under the same conditions, and the cells were preserved at −80° C. The cryopreserved cells were thawed in ice, suspended in buffer A (50 mM Tris buffer (30 mL, pH 7.4) containing 20% glycerol, 0.15 M NaCl) supplemented with Complete Protease Inhibitor (Boehringer), and ruptured 3 times with a Polytron homogenizer (Kinematica) at 20,000 rpm for 30 sec. The ruptured medium was clarified by centrifugation at 40,000 rpm for 30 min and filtered with a 0.45 μm filter. The filtrate was passed through a column packed with Anti-FLAG M2 Affinity Gel (4 mL, Sigma) at a flow rate of about 0.5 mL/min. The column was washed with buffer A, and eluted with buffer A containing 100 μg/mL of FLAG peptide. The eluate was concentrated with Vivaspin 20 (Vivascience) having a molecular weight cut off of 30K. The buffer of this concentrate was exchanged using NAP™ 25 column (Amersham Bioscience) equilibrated with buffer A. The fractions containing intracellular domain protein of VEGFR2 were collected, glycerol was added to the final concentration of 50% and cryopreserved at −80° C.
(§1) A test compound dissolved in dimethyl sulfoxide (DMSO) was diluted with a buffer (50 mM Tris-HCl (pH 7.5), 5 mM MgCl2, 5 mM MnCl2, 2 mM dithiothreitol, 0.01% Tween-20). To this compound solution (5 μL) was added a buffer (10 μL) containing 50 ng/mL of VEGFR2 intracellular domain protein and 250 ng/mL of biotin labeled polypeptide biotinyl-poly-Glu:Tyr (4:1) (CIS bio International). […] The reaction solution was allowed to stand at 25° C. for 16 hrs, and the wells were counted using a plate reader (Fusion™ (PerkinElmer)). The kinase inhibitory rate (%) of the test compound was calculated by the following formula: Inhibitory rate (%)=(1−(count of test compound−blank)÷(control−blank))×100
(§2) The count of the solution reacted without addition of the compound was used as a “control”, and the count of the solution without the compound and ATP was used as a “blank”.

[2] = tested on: Human gastric cancer cell line MKN-45; assay: Human gastric cancer cell line MKN-45 growth inhibitory test; type: cell-based; settings: MKN-45, 72 h, culture for 3 days
Method: Human gastric cancer cell line MKN-45 (RIKEN BioResource Center) was cultured in RPMI1640 (Invitrogen) containing 10% bovine fetal serum in a gas incubator at 37° C., 5% CO2. MKN-45 cells were treated with trypsin/EDTA and recovered. The cells were suspended in RPMI1640 containing 0.3% bovine fetal serum, plated on a 96 well flat bottom plate at a cells density of 3000 cells/50 μL per well. After culturing overnight, various concentrations of test substance were dissolved in RPMI1640 containing 0.3% bovine fetal serum and added to each well by 50 μL. After culture for 3 days, a Cell counting kit-8 reagent (DOJINDO LABORATORIES) was added to each well by 10 μL, and reacted in an incubator at 37° C., 5% CO2 for 2-3 hr. After the reaction, the absorbance of each well at 450 nm was measured by a microtiter plate reader. The concentration of a test substance necessary for inhibiting the growth by 50% (IC50 value) was calculated using a cell proliferation rate with addition of the test substance at each concentration and according to the nonlinear regression analysis using GraphPad Prism [Sigmoidal dose response (variable slope)]. The cell proliferation rate (%) with addition of a test substance at each concentration was calculated by the following formula. As a positive control (100% growth), dimethyl sulfoxide was added instead of a test substance. As a negative control (0% growth), the compound of Reference Example 136 (WO2005/030140, Entry 104), which is a known c-Met inhibitor, was added in large excess (10 μM) instead of a test substance.

[3] = biological target: T2, c-Met intracellular domain protein (Homo sapiens, UniProt P08581); assay: Hepatocyte growth factor receptor (c-Met) kinase inhibitory activity (AlphaScreen); type: biochemical
T2 construct: 2.5 ng/ml of c-Met intracellular domain protein (Millipore); purchased Millipore
T2 sequence (P08581 956-1390 limits assumed): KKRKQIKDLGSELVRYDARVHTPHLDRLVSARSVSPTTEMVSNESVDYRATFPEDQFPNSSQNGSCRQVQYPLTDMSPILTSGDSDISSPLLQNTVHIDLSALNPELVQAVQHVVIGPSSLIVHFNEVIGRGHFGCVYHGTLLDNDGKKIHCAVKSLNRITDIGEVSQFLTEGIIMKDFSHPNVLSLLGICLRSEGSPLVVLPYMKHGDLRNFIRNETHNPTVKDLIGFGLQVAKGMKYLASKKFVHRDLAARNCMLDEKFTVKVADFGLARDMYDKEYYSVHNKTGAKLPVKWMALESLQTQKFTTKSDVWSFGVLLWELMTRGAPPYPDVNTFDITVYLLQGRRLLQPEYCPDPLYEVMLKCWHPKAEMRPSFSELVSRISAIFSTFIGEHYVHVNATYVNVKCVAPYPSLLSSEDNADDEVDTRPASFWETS
Method: as §1, with “containing 2.5 ng/ml” for “containing 50 ng/mL”, “of c-Met” for “of VEGFR2”, “protein (Millipore)” for “protein”
as §2

[4] = tested on: Human umbilical vein-derived vascular endothelial cells (HUVEC); assay: Vascular endothelial cell proliferation inhibitory test (VEGF-stimulated HUVEC); type: cell-based; settings: 120 h, 5 days of culture with VEGF
Method: Human umbilical vein-derived vascular endothelial cells (HUVEC purchased from KURABO […] LTD.) were cultured in an incubator at 37° C., 5% carbon dioxide in a vascular endothelial cell medium (Invitrogen) containing 3% bovine fetal serum and 2.5 ng/mL basic fibroblast growth factor. To be specific, HUVEC was suspended in a vascular endothelial cell medium containing the aforementioned 3% bovine fetal serum and plated on a 96 well flat bottom plate by 50 μL (3000 cells) each well. After culture overnight, various concentrations of the test substance and 120 ng/mL of vascular endothelial growth factor (VEGF) were dissolved in a vascular endothelial cell medium containing 3% bovine fetal serum and added to each well by 50 μL. After 5 days of culture, a Cell counting kit-8 reagent (DOJINDO LABORATORIES) was added to each well by 10 μL, and the mixture was reacted in an incubator at 37° C., 5% carbon dioxide for 2-3 hr. The absorbance at 450 nm was measured by a microtiter plate reader and the cell proliferation inhibitory activity was determined. Using the absorbance with addition of a test substance at each concentration and based on the nonlinear least-squares analysis using a logistic curve of SAS system NLIN procedure, the concentration of the test substance (IC50 value) necessary for showing 50% of the value obtained without addition of the test substance was calculated.

[5] = tested on: Human blood cell cancer cell line MV-4-11; assay: Human blood cell cancer cell line MV-4-11 growth inhibitory test; type: cell-based; settings: MV4-11, 72 h, culture for 3 days
Method: Human blood cell cancer cell line MV-4-11 (ATCC) was cultured in IMDM (Invitrogen) containing 10% bovine fetal serum in an incubator at 37° C., 5% CO2. MV-4-11 cells were treated with trypsin/EDTA and recovered. The cells were suspended in IMDM containing 10% bovine fetal serum, plated on a 96 well flat bottom plate at a cells density of 30,000 cells/50 μL per well. After culturing overnight, various concentrations of test substance were dissolved in IMDM containing 10% bovine fetal serum and added to each well by 50 μL. After culture for 3 days, a Cell counting kit-8 reagent (DOJINDO LABORATORIES) was added to each well by 10 μL, and reacted in an incubator at 37° C., 5% CO2 for 2-3 hr. After the reaction, the absorbance of each well at 450 nm was measured by a microtiter plate reader. The concentration of a test substance necessary for inhibiting the growth by 50% (IC50 value) was calculated using a cell proliferation rate with addition of the test substance at each concentration and according to the nonlinear regression analysis using GraphPad Prism [Sigmoidal dose response (variable slope)].

[6] = biological target: T3, Tie2 intracellular domain protein (Homo sapiens, UniProt Q02763); assay: TIE2 kinase inhibitory activity (AlphaScreen); type: biochemical
T3 construct: 50 ng/mL of Tie2 intracellular domain protein (Millipore); purchased Millipore
T3 sequence (Q02763 770-1124 limits assumed): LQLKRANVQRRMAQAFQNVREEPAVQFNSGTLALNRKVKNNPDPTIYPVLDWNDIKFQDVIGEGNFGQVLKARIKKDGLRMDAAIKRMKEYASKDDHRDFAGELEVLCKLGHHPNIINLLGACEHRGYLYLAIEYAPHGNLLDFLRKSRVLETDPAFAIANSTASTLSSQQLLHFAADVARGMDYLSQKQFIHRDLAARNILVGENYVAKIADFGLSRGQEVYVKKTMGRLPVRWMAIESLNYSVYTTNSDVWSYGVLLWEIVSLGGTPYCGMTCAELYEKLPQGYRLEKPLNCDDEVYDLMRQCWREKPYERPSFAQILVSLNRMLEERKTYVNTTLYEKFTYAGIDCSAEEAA
Method: A test compound dissolved in dimethyl sulfoxide (DMSO) was diluted with a buffer (50 mM Tris-HCl (pH 7.5), 5 mM MgCl2, 5 mM MnCl2, 2 mM dithiothreitol, 0.01% Tween-20). A buffer (10 μL) containing 50 ng/mL of Tie2 intracellular domain protein (Millipore) and 250 ng/ml, of biotin labeled polypeptide biotinyl-poly-Glu:Tyr (4:1) (CIS bio International) was added to the compound solution (5 μL). At 5 min from the mixing of the kinase enzyme, the compound and the biotin labeled polypeptide, a buffer (10 μL) containing 5 μM ATP was added, and the mixture was reacted at 25° C. for 10 min. The reaction was quenched by the addition of 25 μL of a stop solution (100 mM EDTA disodium salt, 62.5 mM HEPES buffer (pH 7.4), 250 mM NaCl, 0.1% bovine serum albumin, 10 μg/ml AlphaScreen assay streptavidin donor beads (Streptavidin Donor beads: PerkinElmer), 10 μg/ml, AlphaScreen assay anti-phosphotyrosine recognition antibody PT-66 binding acceptor beads (Anti-phosphotyrosine (PT-66) Acceptor beads: PerkinElmer)). The reaction solution was allowed to stand at 25° C. for 16 hrs, and the […] were counted using a plate reader (Fusion™ (PerkinElmer)). The kinase inhibitory rate (%) of the test compound was calculated by the following formula: Inhibitory rate (%)=(1−(count of test compound−blank)÷(control−blank))×100
as §2

[7] = biological target: T4, FLT3 intracellular domain protein (Homo sapiens, UniProt P36888); assay: Fms Like Tyrosine Kinase 3 (FLT3) kinase inhibitory activity (AlphaScreen); type: biochemical
T4 construct: 7.5 ng/ml of FLT3 intracellular domain protein (Millipore); purchased Millipore
T4 sequence (P36888 564-993 limits assumed): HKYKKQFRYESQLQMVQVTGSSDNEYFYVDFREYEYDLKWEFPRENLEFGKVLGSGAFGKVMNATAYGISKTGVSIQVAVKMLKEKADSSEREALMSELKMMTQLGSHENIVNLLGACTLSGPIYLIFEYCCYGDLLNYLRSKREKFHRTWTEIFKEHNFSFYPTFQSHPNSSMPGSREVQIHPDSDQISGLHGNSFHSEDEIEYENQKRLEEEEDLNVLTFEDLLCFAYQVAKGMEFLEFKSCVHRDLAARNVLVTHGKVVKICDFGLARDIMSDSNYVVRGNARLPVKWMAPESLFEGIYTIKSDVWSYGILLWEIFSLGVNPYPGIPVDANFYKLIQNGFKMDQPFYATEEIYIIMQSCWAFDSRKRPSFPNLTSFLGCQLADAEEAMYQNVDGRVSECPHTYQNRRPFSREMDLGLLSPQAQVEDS
Method: A test compound dissolved in dimethyl sulfoxide (DMSO) was diluted with a buffer (50 mM Tris-HCl (pH 7.5), 5 mM MgCl2, 5 mM MnCl2, 2 mM dithiothreitol, 0.01% Tween-20). To this compound solution (5 μL) was added a buffer (10 μL) containing 7.5 ng/ml of FLT3 intracellular domain protein (Millipore) and 250 ng/mL of biotin labeled polypeptide biotinyl-poly-Glu:Tyr (4:1) (CIS bio International). At 5 min after mixing kinase enzyme and the compound and biotin labeled polypeptide, to the obtained mixture was added a buffer (10 μL) containing ATP (5 μM), the mixture was allowed to react at 25° C. for 10 min and the reaction was quenched with 25 μL of a stop solution (100 mM EDTA disodium salt, 62.5 mM HEPES buffer (pH 7.4), 250 mM NaCl, 0.1% bovine serum albumin, 10 μg/mL AlphaScreen assay streptavidin donor beads (Streptavidin Donor Beads: PerkinElmer), 10 μg/mL AlphaScreen assay anti-phosphotyrosine recognition antibody Y-100 binding acceptor beads (Anti-phosphotyrosine (P-Tyr-100) Acceptor beads: PerkinElmer)). The reaction solution was allowed to stand at 25° C. for 16 hrs, and the wells were counted using a plate reader (Envision™ (PerkinElmer)). The kinase inhibitory rate (%) of the test compound was calculated by the following formula: Inhibitory rate (%)=(1−(count of test compound−blank)÷(control−blank))×100
as §2

[8] = 1 μM test compound, read-out: inhibitory rate (%) at 1 μM
[9] = 1 μM test substance, read-out: inhibitory rate (%) at 1 μM

T1 sequence (P35968 786-1356 limits assumed): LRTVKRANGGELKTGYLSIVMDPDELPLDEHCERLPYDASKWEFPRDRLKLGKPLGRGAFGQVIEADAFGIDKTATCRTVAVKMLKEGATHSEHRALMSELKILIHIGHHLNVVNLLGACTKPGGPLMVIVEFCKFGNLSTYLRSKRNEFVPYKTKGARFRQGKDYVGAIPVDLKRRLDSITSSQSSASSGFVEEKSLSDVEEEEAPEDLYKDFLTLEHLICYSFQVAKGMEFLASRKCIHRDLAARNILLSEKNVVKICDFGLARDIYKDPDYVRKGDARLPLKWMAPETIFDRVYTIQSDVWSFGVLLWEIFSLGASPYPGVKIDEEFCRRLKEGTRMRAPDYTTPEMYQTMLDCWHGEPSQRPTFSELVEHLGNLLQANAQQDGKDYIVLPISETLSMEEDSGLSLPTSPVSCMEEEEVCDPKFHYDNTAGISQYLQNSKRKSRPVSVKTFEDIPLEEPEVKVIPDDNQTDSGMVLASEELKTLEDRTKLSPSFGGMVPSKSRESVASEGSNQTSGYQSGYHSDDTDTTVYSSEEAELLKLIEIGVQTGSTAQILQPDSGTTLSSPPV

O=C(Nc1nc2ccc(Oc3ccc(NC(=O)C4(C(=O)Nc5ccccc5)CC4)cc3F)nc2s1)C1CC1 [Example 20, N-[4-({2-[(cyclopropylcarbonyl)amino][1,3]thiazolo[5,4-b]pyridin-5-yl}oxy)-3-fluorophenyl]-N′-phenylcyclopropane-1,1-dicarboxamide]
IC50 [1]: ≤ 1000 nM
inhibition at 1 µM [1, 8]: ≥ 70%
inhibition at 1 µM [2, 9]: ≥ 80%
IC50 ([2]; read-out: IC50 value): ≤ 1000 nM
IC50 [3]: ≤ 1000 nM
inhibition at 1 µM [3, 8]: ≥ 80%
inhibition at 1 µM [4, 9]: ≥ 40%
IC50 [4]: ≤ 2000 nM
inhibition at 1 µM [5, 9]: ≥ 90%
IC50 [5]: ≤ 1000 nM

Cc1ccc(C(=O)Nc2ccc(Oc3ccc4nc(NC(=O)C5CC5)cn4c3)c(F)c2)c(=O)n1-c1ccc(F)cc1 [Example 90, N-[4-({2-[(cyclopropylcarbonyl)amino]imidazo[1,2-a]pyridin-6-yl}oxy)-3-fluorophenyl]-1-(4-fluorophenyl)-6-methyl-2-oxo-1,2-dihydropyridine-3-carboxamide acetate]
IC50 [6]: ≤ 1000 nM
IC50 [7]: ≤ 1000 nM
